Experimental data: patent US9492428B2, “Compounds, compositions, pharmaceutical compositions, and methods of use” (University of Louisville Research Foundation, Inc., priority 2011, dated 2016)

Assays:
Type in all cases: cell-based, human
[1] = test system: Prostate cancer cells (DU145 or PC3) or a non-malignant epithelial cells (RWPE-1); assay: MTT cell proliferation assay, 5 days, cancer versus non-malignant cells; conditions: after five days of treatment, FIG. 8C
Experimental: (§1) FIG. 8. Cell proliferation assay. (A) DU145 or PC3 prostate cancer were plated at a density of 1,500 cells per well in 96-well plates and incubated 18 hours at 37° C. to allow adherence. They were untreated or treated by addition of different concentrations of compound I-1 (which were added directly to the medium) or vehicle (DMSO), and proliferation was measured using a 3-(4,5-dimethylthiazol-2-yl)-2,5-diphenyltetrazolium bromide MTT assay after 3 days of treatment. Points, mean of triplicate normalized samples to vehicle sample; bars, SE. (B) GI50 after 3 days of treatment. (C) Prostate cancer cells (DU145 or PC3) or a non-malignant epithelial cells (RWPE-1) were plated at a density of 1,000 cells per well in 96-well plates and incubated 18 hours at 37° C. to allow adherence. They were untreated or treated by addition of different concentrations of compound I-1 (added directly to the medium) or vehicle (DMSO), and proliferation was by MTT assay after 5 days of treatment. Points, mean of triplicate normalized samples to vehicle sample; bars, SE.
(§2) General Experimental Procedure. Compound I-1 was isolated as described in Example Set 1, above. For samples of compound I-1 used in Example Set 2, HPLC and NMR indicated a purity of at least 95%. All experiments described in Example Set 2 were repeated at least two or three times. […]

[2] = test system: PC3 prostate cancer cells; assay: MTT cell proliferation assay in PC3; conditions: after three days of treatment
Experimental: as §1, §2

[3] = test system: DU145 cells; assay: Immunoblotting of apoptotic markers (cleaved caspase-3, PARP-1) in DU145
Experimental: FIG. 13. Assays to detect apoptosis in DU145 cells. Prostate cancer cells were left untreated (−) or treated with 10 μM compound I-1 or with vehicle (DMSO) for the time indicated in the figure. (A) After treatment, cells were harvest by trypsinization, washed with PBS, and then incubated with FITC-conjugated Annexin V and propidium iodide. Flow cytometric analysis was performed. The histogram for each sample was split into four quadrants to indicate: viable cells (lower left quadrant), apoptotic cells (lower right quadrant), necrotic cells (upper left quadrant), and necrotic/late apoptotic cells (upper right quadrant). (B) After treatment, cells were lysed and total lysates were analyzed for cellular apoptotic markers by immunoblotting using anti-[…] or antibodies specific to the activated form of Caspase-3 (cleaved Caspase-3). Anti-GAPDH-1 antibody was used as loading control. (C) Some cells were harvested by trypsinization, washed with PBS, and total DNA was extracted then analyzed on a 1.8% agarose gel. M indicates DNA size marker (base pairs).
Cell Culture and Treatment. All cells were obtained from ATCC and were grown in a humidified incubator at 37° C. with 5% CO2. DU145 (hormone-refractory prostate cancer) cells were grown in DMEM and PC3 (hormone-refractory prostate cancer) were grown in F-12K medium supplemented with 10% fetal bovine serum (FBS; Life Technologies), 62.5 μg/mL penicillin and 100 μg/mL streptomycin (Hyclone Laboratories, Logan, Utah). Cells (1×10^6) in fresh complete culture medium were plated on 10 cm diameter tissue dishes for 18 h. Cells for biochemical analyses cells were lysed in lysis buffer (150 mM NaCl, 2 mM EDTA, 50 mM Tris-HCl, 0.25% deoxycholic acid, 1% octylphenoxypolyethoxyethanol (IGEPAL CA-630), pH 7.5) containing protease and phosphatase inhibitor cocktails (Calbiochem, Billerica, Mass.) for 10 min at 4° C. and then cleared by centrifugation at 16,000 g for 10 min at 4° C. All protein concentrations were determined using the bicinchoninic acid (BCA) protein assay (Pierce, Rockford, Ill.).
Immunoblotting. Samples were resolved by 4-20% precast linear gradient SDS-Tris polyacrylamide gel electrophoresis (Bio-rad Bio-Rad Laboratories, Hercules, Calif.) and then electrotransferred onto polyvinylidine fluoride membranes (Millipore, Bedford, Mass.) in Tris-glycine buffer containing 20% methanol. […] Antibody-reactive proteins were detected using a chemiluminescence substrate (SuperSignal; Pierce, Rockford, Ill.) according to the manufacturer's instructions. […]
Next, to further confirm that compound I-1 induces apoptosis in prostate cancer cells, we evaluated key apoptotic molecular markers. […]

C[C@@H]1CC[C@H]2C3C(O[C@]4([C@]5(O)CC6(C)C(=O)OC5C[C@@]6(C)O)CC[C@@]31O4)[C@H]1O[C@]13CC=CC(=O)[C@]23C (stereo partly drawn) [I-1]
inhibition of cancer cell growth as compared to non-malignant cell growth [1]: selectivity inhibit cancer cell growth | concentration of maximum antiproliferative activity [2]: 10 µM | activated caspase-3 ([3]; 10 μM, 48 h and 72 h): detected | cleavage of PARP-1 protein (additional band at 89 kDa) ([3]; 10 μM, 48 h and 72 h): detected | Caspase-3 activation ([3]; time periods shorter than 48 h): could not be detected | PARP-1 cleavage ([3]; time periods shorter than 48 h): could not be detected
